Test results taken from US20100197625A1, “SYNTHETIC LIPOPHILIC INOSITOL GLYCANS FOR TREATMENT OF CANCER AND GLUCOSE-METABOLISM DISORDERS” (priority 2006, published 2010).

Experiments:
[1] = tested on: Ehrlich ascites cancer cells; assay: Animal survival analysis, ddY mice bearing Ehrlich ascites cancer cells; assay type: in vivo; conditions: daily intraperitoneal for 7 days
Protocol: Male ddy mice weighing 20-30 g obtained from and maintained on a standard diet and water ad libitum. Ehrlich ascites cancer cells (5×10^6 cells) were injected intraperitoneal to the mice. After 7 days later, the mice were subjected to daily intraperitoneal injection of IG1 or IG1 plus alkyl-acyl-phosphatidic acids (AAPAs) for additional 7 days. The endpoint of experiment was determined by spontaneous death of animals.

[2] = tested on: C57B/6 mice on high-fat diets; assay: Intraperitoneal IG1 for 7 days, mice on high-fat diets; assay type: in vivo
Protocol: Male C57BL/6 mice were housed individually and given free access to a standard diet (65% carbohydrate, 4% fat, and 24% protein) or a high-fat diet (Quick Fat; 60.2% carbohydrate, 15.3% fat, and 24.5% protein; Clea Japan, Tokyo, Japan), starting at 5 weeks of age, for 5 weeks. Db/db mice also were housed individually and given free access to a standard diet. C57BL/6 mice at 5 weeks of age, were received a single dose of 75 μg/g body weight streptozotoxin (STZ). 7 days after injections, the mice, whose fasting plasma glucose concentrations were over 400 mg/dl, were used as STZ-diabetic mice. Animal study protocols were in accordance with the institutional guidelines for animal experiments at Tohoku University.
Frozen livers were homogenized, and triglycerides were extracted with CHCl3:CH3OH (2:1, vol:vol), dried and resuspended in 2-propanol (17). Triglyceride contents were measured using Lipidos liquid (TOYOBO, Osaka, Japan). Glycogen was isolated from 30-50 mg of frozen liver by dissolving the tissue in 30% potassium hydroxide saturated with Na2SO4 for 30 min at 100° C., followed by ethanol precipitation. Glycogen content was determined by the phenol-sulfuric acid spectrophotometric method at 490 nm (18) and expressed as micrograms of glycogen per milligram of liver.
Blood glucose was assayed with Glucose Ace (Sanwa Kagaku Kenkyusho, Nagoya, Japan). Serum insulin and leptin were determined with ELISA kits (Morinaga Institute of Biological Science, Yokohama, Japan). Serum adiponectin and tumor necrosis factor-α (TNF-α) concentrations were measured with an ELISA kit (Ohtsuka Pharmaceutical, Tokyo, Japan) and a TNF-α assay kit (Amersham Biosciences, Uppsala, Sweden), respectively. Serum total cholesterol, triglyceride, and FFA concentrations were determined with a Cholescolor liquid, Lipidos liquid (TOYOBO, Osaka, Japan), and NEFA C (Wako Pure Chemical, Osaka, Japan) kits, respectively.
Glucose tolerance was assessed with intraperitoneal glucose tolerance. Glucose tolerance tests were performed on fasted (16 h) mice. Mice were given intraperitoneal glucose (2 g/kg body wt), and blood glucose was assayed immediately before and at 15, 30, 60, and 120 min after administration.

3T3-L1 adipocytes = assay: Glycogen synthesis in 3T3-L1 adipocytes; assay type: cell-based, mouse; conditions: 10-1000 μM
Protocol: 3T3-L1 fibroblasts were maintained in Dulbecco's modified Eagle's medium (DMEM) with 25 mM glucose plus 10% fetal bovine serum (FBS). Following 2 days at confluence, differentiation was initiated by the addition of DMEM containing 10% FBS, 167 nM insulin, […] dexamethasone, and 0.5 mM isobutylmethylxanthine. Three days later, the medium was replaced with DMEM plus 10% FBS and 167 nM insulin. After 2 more days, the medium was switched to DMEM plus 10% fetal bovine serum. Adipocytes were used 6-14 days after completion of the differentiation protocol, when >90% of the cells expressed the adipocyte phenotype. Prior to experiments, cells were washed two times with DMEM medium containing 5 mM glucose, 0.2% bovine serum albumin, 25 mM Hepes (pH 7.4), 100 units/ml penicillin, 100 units/ml streptomycin and 0.29 mg/ml glutamine, and were incubated in the same medium for 2 h. Glycogen and lipid synthesis were measured in 24-well dishes. […] The lipids were then extracted overnight with 5 ml of Betafluor (National Diagnostics), and glucose incorporation into lipid was measured by scintillation counting. 400 μl of the cell suspension was added to 600 μl of 50% KOH, and glycogen was precipitated and radioactivity was counted by a liquid scintillation counter

human hepatoma (HuH7) = assay: Cell proliferation / cell death assay, HuH7; assay type: cell-based; conditions: HuH7, 10-100 μM
Protocol: (§1) Human pancreatic cancer cell lines (Panc-1, MiaPaca2, BXPC3, Aspc 1), human hepatoma cell line (HuH7), human gastric cancer cell lines (AGS, MKN45), human colon cancer cell line (CoCM-1), human mammary cancer cell line (MCF-7), human neuroblastoma (SH-SY5Y), human prostate cancer cells (PC3), and murine Ehrlich ascites cancer cells and mouse 3T3-L1 fibroblasts were obtained from American Type Culture Collection (Rockville, Md., USA). The cancer cells were cultured in RPMI 1640 containing 10% fetal calf serum. Cultures were maintained at 37° C. in a humidified atmosphere of 5% CO2.
Cell proliferation assays were performed with the CellTiter 96 AQueous One Solution Cell Proliferation Assay kit according to the manufacturer's instructions (Promega, Madison, Wis., USA). Briefly, 5×10^3 cells/well in medium were placed onto 96-well plates. IGs were added to cellular cultures at final concentrations of 0, 1, 10, and 100 μM. […] of CellTiter 96 AQueous One Solution Reagent, which contains a tetrazolium compound, 3-(4,5-dimethylthiazol-2-yl)-5-(3-carboxymethoxyphenyl)-2-(4-sulfophenyl)-2H-tetrazolium, an inner salt; MTS was added to the culture medium. After incubating the plate for 1 h in a CO2 incubator, absorbance at 490 nm was recorded with a 96-well plate reader.

Aspc1 = assay: Cell proliferation / cell death assay, Aspc1; assay type: cell-based, human; conditions: Aspc1, 10-100 μM
Protocol: as §1
Cell proliferation assays were performed with the CellTiter 96 AQueous One Solution Cell Proliferation Assay kit according to the manufacturer's instructions (Promega, Madison, Wis., USA). Briefly, 5×10^3 cells/well in medium were placed onto 96-well plates. IGs were added to cellular cultures at final concentrations of 0, 1, 10, and 100 μM. Cultures were incubated for 3 days or 7 days and then added to 20 μL/well of CellTiter 96 AQueous One Solution Reagent, which contains a tetrazolium compound, 3-(4,5-dimethylthiazol-2-yl)-5-(3-carboxymethoxyphenyl)-2-(4-sulfophenyl)-2H-tetrazolium, an inner salt; MTS was added to the culture medium. After incubating the plate for 1 h in a CO2 incubator, absorbance at 490 nm was recorded with a 96-well plate reader.

[3] = high fat-diets, IG1 1 mg, 7 days, Mean ± SD (n = 6)

Q: What does the source list for `CCCCCCCCCCCCCCCC(=O)O[C@@H]1C(O)C(O)[C@H](O)C(O[C@H]2OC(CO)[C@@H](O)[C@H](O)C2N)C1O` (stereo in doubt) [IG1, 2-Amino-2-deoxy-α-D-glucopyranosyl-(1→6)-2-palmitoyl-D-myo-inositol]?
A: survival times [1]: did not affect the survival times; hepatic and muscular glycogen contents ([2]; after 7 days, data not shown): increases hepatic and muscular glycogen contents; hepatic triglyceride contents ([2]; after 7 days, data not shown): decreases hepatic triglyceride contents; Adiponectin [2, 3]: 50.4 ± 4.8 µg/mL; Body weight [2, 3]: 32.1 ± 1.8 g; Fasting plasma glucose [2, 3]: 62.8 ± 6.3 mg/dL; Fasting plasma insulin [2, 3]: 0.44 ± 0.19 ng/mL; Food intake [2, 3]: 2.93 ± 0.37 g/day; Leptin [2, 3]: 17.3 ± 5.4 ng/mL; NEFA [2, 3]: 0.78 ± 0.18 mEq/l; TNF-1α [2, 3]: 33.7 ± 4.4 pg/mL; Total cholesterol [2, 3]: 177.9 ± 24.6 mg/dL; Triglyceride [2, 3]: 26.2 ± 4.4 mg/dL; glucose tolerance ([2]; intraperitoneal, 1 mg per mice, for every 7 days): significantly improved glucose tolerance; glycogen synthesis (3T3-L1 adipocytes): stimulates; rapid cancer cell death (human hepatoma (HuH7)): rapid cancer cell death was demonstrated; rapid cancer cell death (Aspc1): rapid cancer cell death was demonstrated
